Columns and labels:
[1] = test system: SMN protein in SMA patient fibroblast cells (GM03813); experiment: SMN protein assay in cultured cells (SMN HTRF); type: cell-based; settings: Homo sapiens, SMA Type 1 patient fibroblasts, 48 hours; for EC (1.5-fold): 7-point concentration curve, 1.5 times SMN protein vs vehicle, read-out: EC1.5x SMN protein (EC1.5x concentration for SMN protein expression); for maximal fold induction: fold increase relative to vehicle control, read-out: max. fold increase of SMN protein
From the text: The term “EC1.5x concentration for SMN protein expression” (or “EC1.5x SMN protein”) is defined as that concentration of test compound that is effective in producing 1.5 times the amount of SMN protein in an SMA patient fibroblast cell compared to the amount produced from the vehicle control.
The SMN HTRF (homogeneous time resolved fluorescence) assay is used to quantify the level of SMN protein in SMA patient fibroblast cells treated with test compounds. Materials used and respective sources are listed below in Table 4.
Cells are thawed and cultured in DMEM-10% FBS for 72 hours. Cells are trypsinized, counted and re-suspended to a concentration of 25,000 cells/mL in DMEM-10% FBS. The cell suspensions are plated at 5,000 cells per well in a 96 well microtiter plate and incubated for 3 to […]. Test compounds are serially diluted 3.16-fold in 100% DMSO to generate a 7-point concentration curve. 1 μL of test compound solution is transferred to cell-containing wells and cells are incubated for 48 hours in a cell culture incubator (37° C., 5% CO2, […]). Triplicate samples are set up for each test compound concentration. After 48 hours, the supernatant is removed from the wells and 25 μL of the RIPA lysis buffer, containing protease inhibitors, is added to the wells and incubated with shaking at room temperature for 1 hour. 25 μL of the diluent is added and then 35 μL of the resulting lysate is transferred to a 384-well plate, where each well contains 5 μL of the antibody solution (1:100 dilution of anti-SMN d2 and anti-SMN kryptate in SMN reconstitution buffer). The plate is centrifuged for 1 minute to bring the solution to the bottom of the wells, then incubated overnight at room temperature. Fluorescence for each well of the plate at 665 nm and 620 nm is measured on an EnVision multilabel plate reader (Perkin-Elmer).
The normalized fluorescence signal is calculated for each sample, Blank and vehicle control well by dividing the signal at 665 nm by the signal at 620 nm. Normalizing the signal accounts for possible fluorescence quenching due to the matrix effect of the lysate. The ΔF value (a measurement of SMN protein abundance as a percent value) for each sample well is calculated by subtracting the normalized average fluorescence for the Blank control wells from the normalized fluorescence for each sample well, then dividing this difference by the normalized average fluorescence for the Blank control wells and multiplying the resulting value by 100. The ΔF value for each sample well represents the SMN protein abundance from test compound-treated samples. The ΔF value for each sample well is divided by the ΔF value for the vehicle control wells to calculate the fold increase in SMN protein abundance relative to the vehicle control. Table 5 provides EC1.5x concentrations for SMN protein expression that was obtained from the 7-point concentration data generated according to the above procedure for particular compounds of the present invention.
Table 6 provides the maximum fold increase of SMN protein that was obtained from the 7-point concentration data generated according to the above procedure for particular compounds of the present invention

[2] = test system: full length SMN2 minigene mRNA (HEK293H cells stably transfected with SMN2-A minigene); experiment: SMN2 minigene mRNA splicing RT-qPCR assay in cultured cells; type: cell-based; settings: Homo sapiens, HEK293-H, 24 hours, 7-point concentration curve, 1.5-fold increase relative to vehicle, read-out: EC1.5x minigene (EC1.5x concentration for production of full length SMN2 minigene mRNA)
From the text: The term “EC1.5x concentration for production of full length SMN2 minigene mRNA” (or “EC1.5x minigene”) is defined as that concentration of test compound that 1 s effective m increasing the amount of full length SMN2 minigene mRNA to a level 1.5-fold greater relative to that in vehicle-treated cells.
The reverse transcription-quantitative PCR-based (RT-qPCR) assay is used to quantify the level of the full length SMN2 minigene (referred to herein by the term “FL SMN2mini”) mRNA containing SMN2 exon 7 in a HEK293H cell line stably transfected with said minigene and treated with a test compound. Materials used and respective sources are listed below in Table 1.
The SMN2-A minigene construct was prepared as described in International Patent Application WO2009/151546A1 page 145 paragraph [00400] to page 147 paragraph [00412](incl. FIG. 1 and FIG. 3 therein).
HEK293H cells stably transfected with the SMN2-A minigene construct (10,000 cells/well) are seeded in 200 μL of cell culture medium (DMEM plus 10% FBS, with 200 μg/mL hygromycin) in 96-well flat-bottom plates and the plate is immediately swirled to ensure proper dispersal of cells and the formation of an even monolayer of cells. Cells are allowed to attach for 6 hours. Test compounds are serially diluted 3.16-fold in 100% DMSO to generate a 7-point concentration curve. A solution of test compound (1 μL, 200× in DMSO) is added to each cell-containing well and the plate is incubated for 24 hours in a cell culture incubator (37° C., 5% CO2, 100% relative humidity). 2 replicates are prepared for each test compound concentration. The cells are then lysed in the Cells-To-Ct lysis buffer and the lysate is stored at −80° C.
Full length SMN2-A minigene and GAPDH mRNA are quantified using the primers and probes referenced in Table 2. Primer SMN Forward A (SEQ ID NO.1) hybridizes to a nucleotide sequence in exon 7 (nucleotide 22 to nucleotide 40), primer SMN Reverse A (SEQ ID NO.2) hybridizes to a nucleotide sequence in the coding sequence of Firefly luciferase, SMN Probe A (SEQ ID NO.3) hybridizes to a nucleotide sequence in exon 7 (nucleotide 50 to nucleotide 54) and exon 8 (nucleotide 1 to nucleotide 21). The combination of these three oligonucleotides detects only SMN1 or SMN2 minigenes (RT-qPCR) and will not detect endogenous SMN1 or SMN2 genes.
The SMN forward and reverse primers are used at final concentrations of 0.4 μM. The SMN probe is used at a final concentration of 0.15 μM. The GAPDH primers are used at final concentrations of 0.2 μM and the probe at 0.15 μM.
The SMN2-minigene GAPDH mix (15 μL total volume) is prepared by combining 7.5 μL of 2×RT-PCR buffer, 0.4 μL of 25×RT-PCR enzyme mix, 0.75 μL of 20×GAPDH primer-probe mix, 4.0075 μL of water, 2 μL of 10-fold diluted cell lysate, 0.06 μL of 100 µM SMN forward primer, 0.06 μL of 100 μM SMN reverse primer, and 0.225 μL of 100 μM SMN probe.
PCR is carried out at the following temperatures for the indicated time: Step 1: 48° C. (15 min); Step 2: 95° C. (10 min); Step 3: 95° C. (15 sec); Step 4: 60° C. (1 min); then repeat Steps 3 and 4 for a total of 40 cycles.
Each reaction mixture contains both SMN2-A minigene and GAPDH primers/probe sets (multiplex design), allowing simultaneous measurement of the levels of two transcripts.
The increase in the abundance of the FL SMN2mini mRNA relative to that in cells treated with vehicle control is determined from real-time PCR data using a modified ΔΔCt method (as described in Livak and Schmittgen, Methods, 2001, 25:402-8). The amplification efficiency E is calculated from the slope of the amplification curve for FL SMN2mini and GAPDH individually. The abundance of FL SMN2mini and GAPDH mRNA are then calculated as (1+E)^−Ct, where Ct is the threshold value for each amplicon. The abundance of FL SMN2mini mRNA is normalized to GAPDH mRNA abundance. […]

Row | Structure (SMILES) | EC (1.5-fold) [1] | maximal fold induction [1] | EC (1.5-fold) [2]
1 | Cc1cn2nc(-c3cc(=O)n4cc(N5CCN[C@@H](C)C5)ccc4n3)ccc2n1 [Example 11, 2-(2-methylimidazo[1,2-b]pyridazin-6-yl)-7-[(3S)-3-methylpiperazin-1-yl]pyrido[1,2-a]pyrimidin-4-one] | 0.007 µM | 1.9 | 0.0014 µM
2 | Cc1cn2nc(-c3cc(=O)n4cc(N5CCN[C@H](C)C5)ccc4n3)ccc2n1 [Example 12, 2-(2-methylimidazo[1,2-b]pyridazin-6-yl)-7-[(3R)-3-methylpiperazin-1-yl]pyrido[1,2-a]pyrimidin-4-one] | 0.0075 µM | 1.77 | 0.0012 µM
3 | Cc1cn2nc(-c3cc(=O)n4cc(N5CCCNCC5)ccc4n3)ccc2n1 [Example 13, 7-(1,4-diazepan-1-yl)-2-(2-methylimidazo[1,2-b]pyridazin-6-yl)pyrido[1,2-a]pyrimidin-4-one] | 0.003 µM | 1.91 | 0.005 µM
4 | Cc1cn2nc(-c3cc(=O)n4cc(N5C[C@@H](C)N[C@@H](C)C5)ccc4n3)ccc2n1 [Example 14, 7-[(3R,5S)-3,5-dimethylpiperazin-1-yl]-2-(2-methylimidazo[1,2-b]pyridazin-6-yl)pyrido[1,2-a]pyrimidin-4-one] | 0.0176 µM | 1.86 | 0.0041 µM
5 | Cc1cn2nc(-c3cc(=O)n4cc(N5CCN6CCC[C@H]6C5)ccc4n3)ccc2n1 [Example 15, 7-[(8aS)-3,4,6,7,8,8a-hexahydro-1H-pyrrolo[1,2-a]pyrazin-2-yl]-2-(2-methylimidazo[1,2-b]pyridazin-6-yl)pyrido[1,2-a]pyrimidin-4-one] | 0.0212 µM | 1.94 | 0.004 µM
6 | Cc1cn2nc(-c3cc(=O)n4cc(N5CCN6CCC[C@@]6(C)C5)ccc4n3)ccc2n1 [Example 16, 7-[(8aS)-8a-methyl-1,3,4,6,7,8-hexahydropyrrolo[1,2-a]pyrazin-2-yl]-2-(2-methylimidazo[1,2-b]pyridazin-6-yl)pyrido[1,2-a]pyrimidin-4-one] | 0.003 µM | 1.83 | 0.0011 µM
7 | Cc1cn2nc(-c3cc(=O)n4cc(N5CCN6CCC[C@]6(C)C5)ccc4n3)ccc2n1 [Example 17, 7-[(8aR)-8a-methyl-1,3,4,6,7,8-hexahydropyrrolo[1,2-a]pyrazin-2-yl]-2-(2-methylimidazo[1,2-b]pyridazin-6-yl)pyrido[1,2-a]pyrimidin-4-one] | 0.0202 µM | 1.98 | 0.0064 µM
8 | Cc1cn2nc(-c3cc(=O)n4cc(N5CC[C@@H](N6CCCC6)C5)ccc4n3)cc(C)c2n1 [Example 18, 2-(2,8-dimethylimidazo[1,2-b]pyridazin-6-yl)-7-[(3R)-3-pyrrolidin-1-ylpyrrolidin-1-yl]pyrido[1,2-a]pyrimidin-4-one] | 0.025 µM | 1.75 | 0.0036 µM
9 | Cc1cn2nc(-c3cc(=O)n4cc(N5CCNC6(CC6)C5)ccc4n3)cc(C)c2n1 [Example 20, 7-(4,7-diazaspiro[2.5]octan-7-yl)-2-(2,8-dimethylimidazo[1,2-b]pyridazin-6-yl)pyrido[1,2-a]pyrimidin-4-one] | 0.037 µM | 1.72 | 0.0043 µM
10 | Cc1cn2nc(-c3cc(=O)n4cc(N5CC[C@@H](N6CCCC6)C5)ccc4n3)ccc2n1 [Example 21, 2-(2-methylimidazo[1,2-b]pyridazin-6-yl)-7-[(3R)-3-pyrrolidin-1-ylpyrrolidin-1-yl]pyrido[1,2-a]pyrimidin-4-one] | 0.0687 µM | 1.54 | 0.0096 µM
11 | Cc1cn2nc(-c3cc(=O)n4cc(N5CCNC(C)(C)C5)ccc4n3)cc(C)c2n1 [Example 22, 2-(2,8-dimethylimidazo[1,2-b]pyridazin-6-yl)-7-(3,3-dimethylpiperazin-1-yl)pyrido[1,2-a]pyrimidin-4-one] | 0.0138 µM | 1.69 | 0.0009 µM
12 | Cc1cn2nc(-c3cc(=O)n4cc(N5CCNC(C)(C)C5)ccc4n3)ccc2n1 [Example 23, 7-(3,3-dimethylpiperazin-1-yl)-2-(2-methylimidazo[1,2-b]pyridazin-6-yl)pyrido[1,2-a]pyrimidin-4-one] | 0.0239 µM | 1.63 | 0.0034 µM
13 | Cc1cn2nc(-c3cc(=O)n4cc(N5CCN[C@@H](C)C5)cc(C)c4n3)cc(C)c2n1 [Example 24, 2-(2,8-dimethylimidazo[1,2-b]pyridazin-6-yl)-9-methyl-7-[(3S)-3-methylpiperazin-1-yl]pyrido[1,2-a]pyrimidin-4-one] | 0.0047 µM | 1.77 | 0.0004 µM
14 | Cc1cn2nc(-c3cc(=O)n4cc(N5CCN[C@H](C)C5)cc(C)c4n3)cc(C)c2n1 [Example 25, 2-(2,8-dimethylimidazo[1,2-b]pyridazin-6-yl)-9-methyl-7-[(3R)-3-methylpiperazin-1-yl]pyrido[1,2-a]pyrimidin-4-one] | 0.0119 µM | 1.79 | 0.0005 µM
